According to article PMC3914206:

Assays:
panel of 442 kinases [1] = target: T1, panel of 442 kinases (Homo sapiens, UniProt P29323); format: binding; settings: Compound Concentration 10 µM
T1 construct: purchased KINOMEscan
T1 sequence (P29323 19-1055): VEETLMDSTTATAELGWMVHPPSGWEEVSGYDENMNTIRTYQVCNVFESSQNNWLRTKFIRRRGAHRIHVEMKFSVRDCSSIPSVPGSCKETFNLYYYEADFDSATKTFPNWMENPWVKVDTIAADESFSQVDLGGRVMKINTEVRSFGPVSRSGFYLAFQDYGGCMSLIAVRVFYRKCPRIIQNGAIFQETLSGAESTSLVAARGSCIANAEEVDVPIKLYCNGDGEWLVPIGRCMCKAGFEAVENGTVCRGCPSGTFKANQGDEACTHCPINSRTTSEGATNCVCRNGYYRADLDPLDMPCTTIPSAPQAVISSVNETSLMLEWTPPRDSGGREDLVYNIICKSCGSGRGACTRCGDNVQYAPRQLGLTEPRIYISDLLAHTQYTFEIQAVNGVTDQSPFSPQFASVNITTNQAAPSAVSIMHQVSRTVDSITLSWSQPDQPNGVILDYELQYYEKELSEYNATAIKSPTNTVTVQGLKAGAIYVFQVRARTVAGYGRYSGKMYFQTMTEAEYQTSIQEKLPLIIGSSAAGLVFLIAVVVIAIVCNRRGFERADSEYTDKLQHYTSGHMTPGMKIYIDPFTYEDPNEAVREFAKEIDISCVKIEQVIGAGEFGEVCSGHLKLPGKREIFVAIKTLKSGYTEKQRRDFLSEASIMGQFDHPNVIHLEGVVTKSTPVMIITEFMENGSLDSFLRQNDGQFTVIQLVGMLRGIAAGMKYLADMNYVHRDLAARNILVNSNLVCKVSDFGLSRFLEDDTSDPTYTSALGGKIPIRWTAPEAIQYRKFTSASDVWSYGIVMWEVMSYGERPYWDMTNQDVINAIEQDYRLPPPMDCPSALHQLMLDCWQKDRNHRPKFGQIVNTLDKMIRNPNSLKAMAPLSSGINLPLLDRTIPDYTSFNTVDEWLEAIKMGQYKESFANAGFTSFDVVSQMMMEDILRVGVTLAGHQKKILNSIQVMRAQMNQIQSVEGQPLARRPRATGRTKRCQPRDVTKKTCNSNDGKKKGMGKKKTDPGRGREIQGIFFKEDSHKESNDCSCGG
Source text: (§1) We assessed the selectivity of members of this scaffold using the KINOMEscan methodology across a near comprehensive panel of 442 kinases [[18,27]].

panel of 442 kinases [2] = target: T2, panel of 442 kinases (Homo sapiens, UniProt Q9BRS2); format: binding; settings: Compound Concentration 10 µM
T2 construct: purchased KINOMEscan
T2 sequence (Q9BRS2 1-568): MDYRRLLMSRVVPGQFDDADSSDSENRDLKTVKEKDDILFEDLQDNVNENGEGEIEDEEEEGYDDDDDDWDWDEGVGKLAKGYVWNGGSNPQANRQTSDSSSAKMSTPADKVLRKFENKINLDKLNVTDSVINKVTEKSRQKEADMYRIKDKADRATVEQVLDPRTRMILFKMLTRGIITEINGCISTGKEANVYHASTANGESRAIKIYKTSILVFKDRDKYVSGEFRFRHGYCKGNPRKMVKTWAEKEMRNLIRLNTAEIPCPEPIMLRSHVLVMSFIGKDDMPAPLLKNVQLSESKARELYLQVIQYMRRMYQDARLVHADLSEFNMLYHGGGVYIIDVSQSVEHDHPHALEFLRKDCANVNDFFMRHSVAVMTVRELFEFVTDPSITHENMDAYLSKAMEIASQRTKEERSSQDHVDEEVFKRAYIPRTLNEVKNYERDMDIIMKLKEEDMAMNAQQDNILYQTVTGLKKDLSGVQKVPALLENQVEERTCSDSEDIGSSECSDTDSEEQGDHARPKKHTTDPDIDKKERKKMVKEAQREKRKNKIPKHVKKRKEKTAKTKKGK
Source text: as §1

COc1cc(C(=O)N2CCC(N3CCN(C)CC3)CC2)ccc1Nc1ncc2c(n1)N(C)c1ccccc1C(=O)N2C [15 (LRRK2-IN-1)]
KINOMEscan: EPHB2 (panel of 442 kinases [1]): 100
KINOMEscan: RIOK1 (panel of 442 kinases [2]): 100

COc1cc(C(=O)N2CCC(N3CCN(C)CC3)CC2)ccc1Nc1ncc2c(n1)N(C1CCCC1)c1ccccc1C(=O)N2C [Compound 25, 11-cyclopentyl-2-((2-methoxy-4-(4-(4-methylpiperazin-1-yl)piperidine-1-carbonyl)phenyl)amino)-5-methyl-5H-benzo[e]pyrimido[5,4-b][1,4]diazepin-6(11H)-one]
KINOMEscan: EPHB2 (panel of 442 kinases [1]): 86
KINOMEscan: RIOK1 (panel of 442 kinases [2]): 76

CCOc1cc(C(=O)N2CCC(N3CCN(C)CC3)CC2)ccc1Nc1ncc2c(n1)N(C1CCCC1)c1ccccc1C(=O)N2C [Compound 26]
KINOMEscan: EPHB2 (panel of 442 kinases [1]): 100
KINOMEscan: RIOK1 (panel of 442 kinases [2]): 100
